Laboratory results from ChEMBL document CHEMBL1201861, “Genomics of Drug Sensitity in Cancer screening data, Wellcome Trust Sanger Institute”.

Experiments:
Test in all cases: cells
Assay type in all cases: functional, cell-based
Details in all cases: Homo sapiens
[1] = system: COLO-800;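 also: growth inhibition of COLO-800 cells, read out with a cell viability assay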
Description: SANGER: Inhibition of human COLO-800 cell growth in a cell viability assay.

[2] = system: CTB-1
Description: SANGER: Inhibition of human CTB-1 cell growth in a cell viability assay.

[3] = system: CTV-1;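 also: growth inhibition of the cell line, read out with a cell viability assay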
Description: SANGER: Inhibition of human CTV-1 cell growth in a cell viability assay.

[4] = system: DMS-114
[5] = system: DSH1;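 also: growth inhibition of human DSH1 cells, measured with a cell viability readout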
Description: SANGER: Inhibition of human DSH1 cell growth in a cell viability assay.

[6] = system: EM-2;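 also: growth inhibition of EM-2 cells, read out with a cell viability assay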
Description: SANGER: Inhibition of human EM-2 cell growth in a cell viability assay.

[7] = system: ES1;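 also: growth inhibition of ES1 cells, read out with a cell viability assay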
Description: SANGER: Inhibition of human ES1 cell growth in a cell viability assay.

[8] = system: EOL1;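 also: growth inhibition of EoL-1 cells, read out by a cell viability assay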
Description: SANGER: Inhibition of human EoL-1-cell cell growth in a cell viability assay.

[9] = system: GB-1;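 also: growth of GB-1 cells judged by a viability assay, IC50 marks the concentration inhibiting growth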
Description: SANGER: Inhibition of human GB-1 cell growth in a cell viability assay.

[10] = system: GR-ST
Description: SANGER: Inhibition of human GR-ST cell growth in a cell viability assay.

[11] = system: HCC1187;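 also: growth inhibition of HCC1187 cells, read out with a cell viability assay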
Description: SANGER: Inhibition of human HCC1187 cell growth in a cell viability assay.

[12] = system: HCC2218;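 also: cell viability assay read-out, with IC50 given as the concentration that inhibits growth of the cell line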
Description: SANGER: Inhibition of human HCC2218 cell growth in a cell viability assay.

[13] = system: HD-MY-Z;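 also: growth inhibition of HD-MY-Z cells, read out with a cell viability assay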
Description: SANGER: Inhibition of human HD-MY-Z cell growth in a cell viability assay.

[14] = system: HDLM-2;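 also: cell viability assay measuring suppression of HDLM-2 proliferation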
Description: SANGER: Inhibition of human HDLM-2 cell growth in a cell viability assay.

[15] = system: KGN;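 also: growth inhibition of KGN cells, read out with a cell viability assay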
Description: SANGER: Inhibition of human KGN cell growth in a cell viability assay.

[16] = system: KINGS-1;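 also: cell viability assay measuring suppression of KINGS-1 cell growth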
Description: SANGER: Inhibition of human KINGS-1 cell growth in a cell viability assay.

[17] = system: KNS-42;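 also: growth inhibition of KNS-42 cells, read out with a cell viability assay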
Description: SANGER: Inhibition of human KNS-42 cell growth in a cell viability assay.

[18] = system: KNS-81-FD;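 also: growth inhibition of KNS-81-FD cells, read out with a cell viability assay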
Description: SANGER: Inhibition of human KNS-81-FD cell growth in a cell viability assay.

[19] = system: KY821;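 also: growth inhibition of human KY821 cells, read out by a cell viability assay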
Description: SANGER: Inhibition of human KY821 cell growth in a cell viability assay.

[20] = system: L-428
Description: SANGER: Inhibition of human L-428 cell growth in a cell viability assay.

[21] = system: LAMA-84;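 also: growth inhibition of LAMA-84 cells, read out with a cell viability assay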
Description: SANGER: Inhibition of human LAMA-84 cell growth in a cell viability assay.

[22] = system: LB1047-RCC;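 also: inhibition of cell growth, determined with a cell viability assay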
Description: SANGER: Inhibition of human LB1047-RCC cell growth in a cell viability assay.

[23] = system: LB2241-RCC;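 also: cell viability assay measuring how strongly the cultured human renal carcinoma line is prevented from growing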
Description: SANGER: Inhibition of human LB2241-RCC cell growth in a cell viability assay.

[24] = system: LS-1034
Description: SANGER: Inhibition of human LS-1034 cell growth in a cell viability assay.

[25] = system: MC116;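 also: growth inhibition of MC116 cells, read out with a cell viability assay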
Description: SANGER: Inhibition of human MC116 cell growth in a cell viability assay.

[26] = system: MFM-223
Description: SANGER: Inhibition of human MFM-223 cell growth in a cell viability assay.

[27] = system: MSTO-211H
Description: SANGER: Inhibition of human MSTO-211H cell growth in a cell viability assay.

[28] = system: Mo
Description: SANGER: Inhibition of human Mo-T cell growth in a cell viability assay.

[29] = system: NB10;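 also: growth inhibition of NB10 cells, read out by a cell viability assay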
Description: SANGER: Inhibition of human NB10 cell growth in a cell viability assay.

[30] = system: NB13;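 also: cell viability readout measuring growth inhibition of human NB13 cells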
Description: SANGER: Inhibition of human NB13 cell growth in a cell viability assay.

[31] = system: NCI-H1355;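 also: growth inhibition of human NCI-H1355 cells, read out by a cell viability assay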
Description: SANGER: Inhibition of human NCI-H1355 cell growth in a cell viability assay.

[32] = system: NCI-H1395;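 also: cell viability assay read-out quantifying reduced proliferation of human NCI-H1395 cells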
Description: SANGER: Inhibition of human NCI-H1395 cell growth in a cell viability assay.

[33] = system: NCI-H1650;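 also: growth inhibition of human NCI-H1650 cells measured by a cell viability assay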
Description: SANGER: Inhibition of human NCI-H1650 cell growth in a cell viability assay.

[34] = system: NCI-H226;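 also: cell viability read-out used to gauge growth inhibition of the cells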
Description: SANGER: Inhibition of human NCI-H226 cell growth in a cell viability assay.

[35] = system: NCI-H69;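 also: growth inhibition of the cell line, read out with a cell viability assay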
Description: SANGER: Inhibition of human NCI-H69 cell growth in a cell viability assay.

[36] = system: NCI-H720;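 also: growth inhibition of human NCI-H720 cells determined by a cell viability assay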
Description: SANGER: Inhibition of human NCI-H720 cell growth in a cell viability assay.

[37] = system: NCI-H747;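 also: growth inhibition of human NCI-H747 cells, read out by a cell viability assay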
Description: SANGER: Inhibition of human NCI-H747 cell growth in a cell viability assay.

[38] = system: NCI-H82;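 also: growth inhibition of NCI-H82 cells, measured with a cell viability readout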
Description: SANGER: Inhibition of human NCI-H82 cell growth in a cell viability assay.

[39] = system: NEC8;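 also: growth inhibition of human NEC8 cells, read out by a cell viability assay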
Description: SANGER: Inhibition of human NEC8 cell growth in a cell viability assay.

[40] = system: RH-1;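 also: growth inhibition of human RH-1 cells, read out with a cell viability assay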
Description: SANGER: Inhibition of human RH-1 cell growth in a cell viability assay.

[41] = system: RKO;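 also: growth inhibition of human RKO cells, read out with a cell viability assay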
Description: SANGER: Inhibition of human RKO cell growth in a cell viability assay.

[42] = system: SF-126;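 also: growth inhibition of human SF126 cells, read out with a cell viability assay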
Description: SANGER: Inhibition of human SF126 cell growth in a cell viability assay.

[43] = system: SF-539;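 also: Read-out is a cell viability assay, with IC50 reflecting inhibition of cell growth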
Description: SANGER: Inhibition of human SF539 cell growth in a cell viability assay.

[44] = system: SJSA-1;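 also: growth inhibition of human SJSA-1 cells, read out through a cell viability measurement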
Description: SANGER: Inhibition of human SJSA-1 cell growth in a cell viability assay.

[45] = system: SK-N-DZ;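 also: growth inhibition of the cancer cell line, read out through a viability assay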
Description: SANGER: Inhibition of human SK-N-DZ cell growth in a cell viability assay.

[46] = system: SNB-75;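 also: cell viability assay measuring growth inhibition of human SNB-75 cells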
Description: SANGER: Inhibition of human SNB75 cell growth in a cell viability assay.

[47] = system: SNU-C2B;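 also: cell viability readout used to measure compound-driven suppression of SNU-C2B cell proliferation, IC50 marking half-maximal growth inhibition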
Description: SANGER: Inhibition of human SNU-C2B cell growth in a cell viability assay.

[48] = system: A101D;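 also: growth inhibition of the cell line, measured with a viability assay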
Description: SANGER: Inhibition of human A101D cell growth in a cell viability assay.

[49] = system: A388;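 also: growth inhibition of human A388 cells, read out with a cell viability assay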
Description: SANGER: Inhibition of human A388 cell growth in a cell viability assay.

[50] = system: ALL-PO;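 also: growth inhibition of ALL-PO cells, read out by a cell viability assay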
Description: SANGER: Inhibition of human ALL-PO cell growth in a cell viability assay.

[51] = system: AM-38;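 also: growth inhibition of AM-38 cells of human origin, read out by a cell viability assay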
Description: SANGER: Inhibition of human AM-38 cell growth in a cell viability assay.

[52] = system: BB30-HNC;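 also: growth inhibition of the cultured cell line, read out by a cell viability assay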
Description: SANGER: Inhibition of human BB30-HNC cell growth in a cell viability assay.

[53] = system: Becker;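 also: growth inhibition of Becker cells, read out with a cell viability assay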
Description: SANGER: Inhibition of human Becker cell growth in a cell viability assay.

[54] = system: TE-12;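 also: growth inhibition of TE-12 cells, read out by a cell viability assay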
Description: SANGER: Inhibition of human TE-12 cell growth in a cell viability assay.

[55] = system: TE-8;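 also: growth inhibition of TE-8 cells, measured with a cell viability readout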
Description: SANGER: Inhibition of human TE-8 cell growth in a cell viability assay.

[56] = system: TE-9;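 also: cell growth inhibition, measured with a cell viability readout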
Description: SANGER: Inhibition of human TE-9 cell growth in a cell viability assay.

[57] = system: TGBC1TKB
Description: SANGER: Inhibition of human TGBC1TKB cell growth in a cell viability assay.

[58] = system: TGBC24TKB
Description: SANGER: Inhibition of human TGBC24TKB cell growth in a cell viability assay.

[59] = system: U-266
Description: SANGER: Inhibition of human U-266 cell growth in a cell viability assay.

[60] = system: CAS-1
Description: SANGER: Inhibition of human CAS-1 cell growth in a cell viability assay.

[61] = system: CGTH-W-1
Description: SANGER: Inhibition of human CGTH-W-1 cell growth in a cell viability assay.

[62] = system: COLO-320-HSR
Description: SANGER: Inhibition of human COLO-320-HSR cell growth in a cell viability assay.

[63] = system: COLO-668
Description: SANGER: Inhibition of human COLO-668 cell growth in a cell viability assay.

`Cn1c(=O)n(-c2ccc(C(C)(C)C#N)cc2)c2c3cc(-c4cnc5ccccc5c4)ccc3ncc21` [DACTOLISIB] showed an IC50 [1] of 32.9 nM, an IC50 [2] of 24.7 nM and an IC50 [3] of 32.8 nM. It also gave an IC50 [4] of 125 nM, an IC50 [5] of 407 nM and an IC50 [6] of 54.4 nM. The IC50 [7] was 28.8 nM, the IC50 [8] was 13.9 nM and the IC50 [9] was 54.2 nM. For the same compound, the IC50 [10] was 52.9 nM, the IC50 [11] was 576 nM and the IC50 [12] was 6.61 nM. It also gave an IC50 [13] of 44.9 nM, an IC50 [14] of over 2 µM and an IC50 [15] of 56.3 nM. For the same compound, the IC50 [16] was 82.3 nM, the IC50 [17] was 144 nM and the IC50 [18] was 19.5 nM. It also gave an IC50 [19] of 56.2 nM, an IC50 [20] of 275 nM and an IC50 [21] of 35.9 nM. It also gave an IC50 [22] of 38.8 nM, an IC50 [23] of 14 nM and an IC50 [24] of 491 nM. It also gave an IC50 [25] of 57.8 nM, an IC50 [26] of 132 nM and an IC50 [27] of 63.5 nM. For the same compound, the IC50 [28] was 948 nM, the IC50 [29] was 240 nM and the IC50 [30] was 118 nM. It also gave an IC50 [31] of 46.3 nM, an IC50 [32] of 199 nM and an IC50 [33] of 204 nM. The IC50 [34] was 708 nM, the IC50 [35] was 427 nM and the IC50 [36] was 3.57 nM. The IC50 [37] was 119 nM, the IC50 [38] was over 2 µM and the IC50 [39] was 67.2 nM. For the same compound, the IC50 [40] was 54.7 nM, the IC50 [41] was 38.3 nM and the IC50 [42] was 19.4 nM. It also gave an IC50 [43] of 52.3 nM, an IC50 [44] of 38.5 nM and an IC50 [45] of over 2 µM. For the same compound, the IC50 [46] was 54.3 nM, the IC50 [47] was 181 nM and the IC50 [48] was 39 nM. It also gave an IC50 [49] of 250 nM, an IC50 [50] of 416 nM and an IC50 [51] of 69.3 nM. The IC50 [52] was 131 nM, the IC50 [53] was 34.2 nM and the IC50 [54] was 141 nM. The IC50 [55] was 66.5 nM, the IC50 [56] was 1130 nM and the IC50 [57] was 23.1 nM. It also gave an IC50 [58] of 222 nM, an IC50 [59] of 206 nM and an IC50 [60] of 207 nM. It also gave an IC50 [61] of 20.6 nM, an IC50 [62] of 403 nM and an IC50 [63] of 706 nM.
`CC(=O)c1c(C)c2cnc(Nc3ccc(N4CCNCC4)cn3)nc2n(C2CCCC2)c1=O` [PALBOCICLIB] showed an IC50 [1] of 898 nM, an IC50 [2] of 405 nM and an IC50 [3] of 2530 nM. For the same compound, the IC50 [4] was over 4000 nM, the IC50 [5] was over 4000 nM and the IC50 [6] was 651 nM. The IC50 [7] was 256 nM, the IC50 [8] was 187 nM and the IC50 [9] was over 4000 nM. It also gave an IC50 [10] of over 4000 nM, an IC50 [11] of over 4000 nM and an IC50 [12] of 2350 nM. It also gave an IC50 [13] of over 4000 nM, an IC50 [14] of over 4 µM and an IC50 [15] of 2820 nM. For the same compound, the IC50 [16] was over 4000 nM, the IC50 [17] was over 4000 nM and the IC50 [18] was over 4000 nM. It also gave an IC50 [19] of 314 nM, an IC50 [20] of over 4000 nM and an IC50 [21] of 258 nM. It also gave an IC50 [22] of 928 nM, an IC50 [23] of 1190 nM and an IC50 [24] of over 4000 nM. The IC50 [25] was over 4000 nM, the IC50 [26] was over 4000 nM and the IC50 [27] was 1700 nM. For the same compound, the IC50 [28] was over 4000 nM, the IC50 [29] was 599 nM and the IC50 [30] was over 4000 nM. For the same compound, the IC50 [31] was 2560 nM, the IC50 [32] was over 4000 nM and the IC50 [33] was over 4000 nM. The IC50 [34] was over 4000 nM, the IC50 [35] was over 4000 nM and the IC50 [36] was over 4000 nM. It also gave an IC50 [37] of 2320 nM, an IC50 [38] of over 4 µM and an IC50 [39] of over 4000 nM. For the same compound, the IC50 [40] was over 4000 nM, the IC50 [41] was 2380 nM and the IC50 [42] was over 4000 nM. It also gave an IC50 [43] of over 4000 nM, an IC50 [44] of 2380 nM and an IC50 [45] of over 4 µM. It also gave an IC50 [46] of over 4000 nM, an IC50 [47] of over 4000 nM and an IC50 [48] of 3770 nM. It also gave an IC50 [49] of over 4000 nM, an IC50 [50] of over 4000 nM and an IC50 [51] of over 4000 nM. For the same compound, the IC50 [52] was over 4000 nM, the IC50 [53] was 2960 nM and the IC50 [54] was over 4000 nM. The IC50 [55] was 1420 nM, the IC50 [56] was over 4000 nM and the IC50 [57] was over 4000 nM. The IC50 [58] was over 4000 nM, the IC50 [59] was over 4000 nM and the IC50 [60] was over 4000 nM. It also gave an IC50 [61] of 1170 nM, an IC50 [62] of over 4000 nM and an IC50 [63] of over 4000 nM.
